The values below come from US9827338B2, “GRP-R agonistic 177-lutetium-labeled bombesin derivatives for diagnosis and treatment of prostate cancer” (KOREA ATOMIC ENERGY RESEARCH INSTITUTE, priority 2014, dated 2017).

Each structure is given as a SMILES string.

For data set [1], the target named is T1, GRP-R (Homo sapiens, UniProt P30550).
T1 construct: PC-3 cells were used as a human prostate cancer cell line; host or cells: PC-3 human prostate cancer cells
The data set can be described thus: Competitive binding with 125I-[Tyr4]-bombesin in PC-3 cells. Conditions: competition with 125I-[Tyr4]-bombesin (20,000 CPM), 37° C., 1 hour. The procedure: (§1) In order to confirm in vitro targeting efficiency of DOTA-gluBBN and 177Lu-DOTA-gluBBN prepared according to Examples 1 and 2 to prostate cancer cells, PC-3 cells were used as a human prostate cancer cell line. The PC-3 cells corresponding to the human prostate cancer cell line were purchased from Korean cell line bank. The PC-3 cells were cultured in a Roswell Park Memorial Institute (RPMI) 1640 medium containing 10% fetal bovine serum (FBS) at 37° C. in 5% CO2 atmosphere.
(§2) The cells were cultured in a disposable flask for cell culture, and at the time of an experiment, the cells were cultured in a 96-well or 12-well cell culture plate according to an experimental method and then used.
DOTA-gluBBN (10^−6 to 10^−12M) prepared according to Example 1 was co-cultured with 125I-[Tyr^4]-bombesin (20,000 CPM), respectively, in the PC-3 cells, which are human prostate cancer cells, to thereby carry out a competitive reaction. After culturing a cell plate at 37° C. for 1 hour, a reaction solution was recovered. After the cells were washed with PBS and recovered by 1N NaOH, radioactivity of each solution was measured using a gamma counter.

The next data set deals with prostate cancer. As to the kind of experiment: Comparison of in vivo targeting efficiency to prostate cancer with comparative material 177Lu-AMBA. Conditions: versus comparative material 177Lu-AMBA. The text has this:
As a material having prostate cancer targeting mechanism similar to that of the bombesin derivatives (177Lu-DOTA-gluBBN) using the bombesin derivatives, which is the GRP-R agonist, prepared according to Example 2, 177Lu-AMBA (comparative material (J. Nucl. Med. 47(7):1144-1152 (Non-Patient Document)), see compound in FIG. 1) is a prostate cancer targeting diagnosis and treatment material of which excellent targeting efficiency is recognized, such that currently a phase 1 clinical trial was terminated.

A short description of data set [2]: In vivo histological toxicity (spleen and kidney, H&E). The arrangement: species or system Balb/c nude mouse. Conditions: therapeutic dose, H&E stained, versus normal and control group. The method, then: (§3) In order to confirm a toxicological effect by therapeutic dose, a body weight and histological states of organs were evaluated. The body weight was measured twice a week, and after euthanizing the animal model at the timing at which evaluation was terminated, spleen and kidney tissue was collected and H&E stained.

For data set [3], the target named is T1, GRP-R. The data set can be described thus: Binding of 177Lu-DOTA-gluBBN in PC-3 cells (dissociation constant). Conditions: 0.01 to 100 nM, 37° C., 2 hours. The method, then: as §1, §2
In addition, 177Lu-DOTA-gluBBN (0.01 to 100 nM) prepared according to Example 2 was reacted, respectively, in the PC-3 cells. After culturing a cell plate at 37° C. for 2 hours, a reaction solution was recovered. After the cells were washed with PBS and recovered by 1N NaOH, radioactivity of each solution was measured using a gamma counter.

Data set [4] can be described thus: In vivo physiological toxicity (body weight). Also on record: species or system mouse. Conditions: therapeutic dose, early stage of administration, measured twice a week. The method, then:
as §3

A short description of data set [5]: In vivo distribution in PC-3 xenografted tumor mouse model. Conditions: male, Balb/c nude, tumor (PC-3 xenograft), total radioactivity, prostate cancer cells (tumor), 1 hour after intravenous injection, 370 KBq, read-out: tumor uptake, percentage of the injected dose per unit weight. The method, then: In order to evaluate in vivo targeting efficiency of 177Lu-DOTA-gluBBN, in vivo distribution of 177Lu-DOTA-gluBBN in a tumor mouse model obtained by xenografting PC-3 cells, which are human prostate cancer cells, into a Balb/c nude mouse (Nara biotech, Korea) was evaluated. The tumor-bearing mouse model was prepared by subcutaneously injecting the PC-3 cells (1×10^7) into a right upper end of the shoulder of a male Balb/c nude mouse (7 weeks old) and allowing tumor to grow for 3 weeks. 177Lu-DOTA-gluBBN (370 KBq) was intravenously injected into a tail vein of the tumor mouse model. After […] of injection, the experimental animal was euthanized. Then, after the blood, the liver, the kidney, the spleen, the heart, the large intestine, the small intestine, the lung, the stomach, the pancreas, and the like, in addition to the tumor were extracted, weights of the organs were measured, and radioactivity of each organ was measured. 177Lu-DOTA-gluBBN uptake in each organ was expressed as percentage of the injected dose per unit weight (% ID/g). It was confirmed that 177Lu-DOTA-gluBBN targeted prostate cancer cells at 1 hour after intravenous injection with high efficiency (12.42±2.15% ID/g).

T1 sequence (P30550 whole entry): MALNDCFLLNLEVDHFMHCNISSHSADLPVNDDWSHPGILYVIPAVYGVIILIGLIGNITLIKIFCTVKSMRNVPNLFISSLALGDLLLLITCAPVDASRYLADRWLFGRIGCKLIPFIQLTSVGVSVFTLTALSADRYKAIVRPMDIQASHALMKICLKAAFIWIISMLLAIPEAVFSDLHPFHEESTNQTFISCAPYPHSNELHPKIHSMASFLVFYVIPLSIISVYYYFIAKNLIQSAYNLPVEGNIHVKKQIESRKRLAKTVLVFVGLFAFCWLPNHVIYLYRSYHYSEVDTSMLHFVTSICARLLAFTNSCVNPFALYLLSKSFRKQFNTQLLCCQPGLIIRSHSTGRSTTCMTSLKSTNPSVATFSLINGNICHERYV

Consider `CSCC[C@H](NC(=O)[C@H](CC(C)C)NC(=O)[C@H](Cc1c[nH]cn1)NC(=O)CNC(=O)[C@@H](NC(=O)[C@H](C)NC(=O)[C@H](Cc1c[nH]c2ccccc12)NC(=O)[C@H](CCC(N)=O)NC(=O)c1ccc(NC(=O)[C@H](CCCCNC(=O)CO[C@@H]2[C@@H](O)[C@@H](O)O[C@H](CO)[C@H]2O)NC(=O)CN2CCN(CC(=O)O)CCN(CC(=O)O)CCN(CC(=O)O)CC2)cc1)C(C)C)C(N)=O` [DOTA-gluBBN], for which the IC50 (commonly the midpoint of a concentration-inhibition curve) at GRP-R [1] came to 4.67 nM.
Consider `CSCC[C@H](NC(=O)[C@H](CC(C)C)NC(=O)[C@H](Cc1c[nH]cn1)NC(=O)CNC(=O)[C@@H](NC(=O)[C@H](C)NC(=O)[C@H](Cc1c[nH]c2ccccc12)NC(=O)[C@H](CCC(N)=O)NC(=O)c1ccc(NC(=O)[C@H](CCCCNC(=O)CO[C@@H]2[C@@H](O)[C@@H](O)O[C@H](CO)[C@H]2O)NC(=O)CN2CCN(CC(=O)O)CCN(CC(=O)O)CCN(CC(=O)O)CC2)cc1)C(C)C)C(N)=O` [177Lu-DOTA-gluBBN, metal not drawn], for which the “removal in the blood versus 177Lu-AMBA” value with prostate cancer is reported as “more rapidly removed in the blood”. The “histological toxicity in spleen and kidney” value in data set [2] was “not observed”. On GRP-R [3], the Kd (as a rule, a measure of binding affinity in units of concentration) was about 0.63 nM. In addition, the body weight change entry in data set [4] was “there was not a great change in the body weight”. Besides, the tissue uptake at 1 h in data set [5] amounted to 12.4 ± 2.15 %ID/g.
